# Data from patent US7875638B2, “Synthesis of epothilones, intermediates thereto, analogues and uses thereof” (Sloan-Kettering Institute for Cancer Research, priority 2002, dated 2011).
# Several values for one entry are separate records, joined by “and”; a condition that tells them apart may be missing. Equal values may be shown once. Entries after “also recorded” stand apart in the source; their conditions may differ. Read-outs that look alike come from different tables or passages of the source.
# Columns and labels:
# CCRF-CEM/Taxol = type: cell-based, human; settings: for IC50: Homo sapiens, CCRF-CEM
# [1] = system: human mammary carcinoma MX-1 xenograft; experiment: MX-1 xenograft in nude mice
# CCRF-CEM = settings: for Potency compared with EpoB (51): sensitive and resistant cell lines
# Description: (§1) Cytotoxicity Assays. In preparation for in vitro cytotoxicity assays, cells were cultured at an initial density 2-5×10^4 cells per milliliter. […] For both methods, the absorbance of each well was measured with a microplate reader (Power Wave XS, Bio-Tek, Winooski, Vt.).
# A typical experiment involves culturing cells (e.g., CCRF-CEM) at an initial density of 2-5×10^4 cells per ml. […] For cells that were grown in suspension (such as CCRF-CEM and its sublines), cytotoxicitiy is measured by using the 2,-3-bis(2-methoxy-4-nitro-5-sulfophenyl)-5 carboxanilide)-2H terazodium hydroxide (XTT)-microculture tetrazonium method in duplicate in 96-well microtiter plates. For both methods, the absorbance of each well is measured with a microplate reader (EL-340, Bio-Tek, Burlington, Vt.). Each run entails six or seven concentrations of the tested drugs. Dose-effect relationship data are analyzed with the median-effect plot.
# Cytotoxicity Assays: In preparation for in vitro cytotoxicity assays, cells were cultured at an initial density 2-5×10^4 cells per milliliter. […] For both methods, the absorbance of each well was measured with a microplate reader (Power Wave XS, Bio-Tek, Winooski, Vt.).
# [2] = system: human xenografts in nude mice, such as MX-1; design: Relative therapuetic index at MTD: key to the marks not given beside the values
# [3] = system: human T-cell lymphoblastic leukemia CCRF-CEM/Taxol xenograft; experiment: CCRF-CEM/Taxol xenograft in nude mice; type: in vivo
# [4] = system: human colon carcinoma HCT-116 xenograft; experiment: HCT-116 xenograft in nude mice
# [5] = for Slower drug degradation in murine plasma as compared to dEpoB (1), factor: exposure to murine plasma
# Description: (§2) Stability of epothilones in mouse and in human liver S9 fraction. The stability study was carried out with a fully automated HPLC system which consisted of a Prospekt-2 (Spark Holland, Netherlands) sample preparation system and an Agilent 1100 HPLC system. Briefly, the Prospekt 2 picked up a C8 extraction cartridge and washed it with acetonitrile and water. The Agilent autosampler, set at 37° C., picked up 20 μl of the sample, loaded it onto the cartridge, washed it with water, then the Prospekt-2 diverted the mobile phase stream through the extraction cartridge onto the analytical column, Reliance Stable Bond C8 4×80 mm with guard column (MacMod, Chadds Ford, Pa.) and the eluent was monitored at 250 nm. […] Sample preparation involved the addition of equal volumes of plasma to PBS for a total volume of 300-400 μl, filtered, and the addition of 0.5-2 μl of the substrate (20 mM) to achieve about 30-50 mAU at 250 nm in the HPLC analysis. For pooled human liver microsome S9 fraction (Xeno Tech, Lenex, Kans.), 20 μl (400 μg) or S9 fraction was mixed with 280 μl of PBS then proceeded as above. The sampling period was controlled by the autosampler and peak area data were collected to compare the rate of disappearance of the parent compound.
# (§3) Stability of epothilones in mouse and in human liver S9 fraction: The stability study was carried out with a fully automated HPLC system which consisted of a Prospekt-2 (Spark Holland, Netherlands) sample preparation system and an Agilent 1100 HPLC system. Briefly, the Prospekt 2 picked up a C8 extraction cartridge and washed it with acetonitrile and water. The Agilent autosampler, set at 37° C., picked up 20 μl of the sample, loaded it onto the cartridge, washed it with water, then the Prospekt-2 diverted the mobile phase stream through the extraction cartridge onto the analytical column, Reliance Stable Bond C8 4×80 mm with guard column (MacMod, Chadds Ford, Pa.) and the eluent was monitored at 250 nm. […] Sample preparation involves the addition of equal volumes of plasma to PBS for a total volume of 400 μl, filtered, and the addition of 0.5-2 μl of the substrate (20 mM) to achieve about 30-50 mAU at 250 nm in the HPLC analysis. For pooled human liver microsome S9 fraction (Xeno Tech, Lenex, Kans.), 20 μl (400 μg) or S9 fraction was mixed with 280 μl of PBS then proceeds as above. The sampling period was controlled by the autosampler and peak area data were collected to compare the rate of disappearance of the parent compound.
# [6] = preliminary metabolic degradation studies
# [7] = system: human mammary carcinoma MX-1 xenograft; settings: 20 mg/kg
# [8] = system: human colon carcinoma HCT-116 xenograft
# in vitro [9] = settings: human, s9
# Description: as §2, §3
# in vitro [10] = settings: mouse, plasma
# Description: as §2, §3
# [11] = Octanol-water partition (POW) number by HPLC; type: physicochemical; settings: HPLC estimate, pH 7.4 buffer; read-out: Lipophilicity octanol/water partition (POW)
# Description: Determination of partition of octanol-water (POW) number. An HPLC method is used to estimate octanol-water partition. An Agilent 1100 HPLC system is used with an eclipse XDB C18 column 4.6×250 mm with a mobile phase of 60% acetonitrile/40% 25 mM potassium phosphate buffer at pH 7.4 with a flow rate of 0.8 ml per min. and the eluent is monitored at 250 nm. The standards used are benzyl alcohol, acetophenone, benzophenone, naphthalene, diphenyl ether and dibenzyl with known POW of […] respectively. Sodium dichromate is used to evaluate time zero which is 2.5 min and the retention times for the standards are 3.9, 5.4, 10.6, 14, 18.7 and 19.8 min, respectively. The k value is calculated by the formula of k=(trt−t0)/t0. Linear regression of log k vs. log POW gives a straight line with r^2=0.966. This graph is used to evaluate the POW value of the epothilone analogs.
# [12] = XTT assay following 72 h inhibition, Table 1-4, read-out: IC50, CCRF-CEM/Taxol
# [13] = read-out: IC50, CCRF-CEM, XTT assay following 72 h inhibition, Table 1-4
# [14] = read-out: CCRF-CEM (IC50 (μM)), XTT assay following 72 h inhibition, Table 1-1
# [15] = 72 h, read-out: IC50, CCRF-CEM/Taxol
# Description for A549/taxol cells: as §1
compound,measurement,setting,value
"C/C(=C\c1csc(CO)n1)C1C/C=C(/C(F)(F)F)C/C=C/[C@H](C)[C@H](O)[C@@H](C)C(=O)C(C)(C)[C@@H](O)CC(=O)O1 (stereo partly shown) [Compound 59, 26-trifluoro-9,10-dehydro-dEpoF]",Water solubility relative to other epothilones,Solubility in water,greatly increased water solubility
"C/C(=C\c1csc(C)n1)[C@@H]1C[C@@H]2O[C@]2(C)C/C=C/[C@H](C)[C@H](O)[C@@H](C)C(=O)C(C)(C)[C@@H](O)CC(=O)O1 [Compound 49, (E)-9,10-dehydroepothilone B]",IC50,CCRF-CEM/Taxol; [12],0.00042 µM
same,Therapeutic effect on MX-1 xenograft,"[1]; 0.4-0.6 mg/kg, every three days 9-11 times, 6 hour iv infusion",shrinkage and disappearance of the tumor
same,Therapeutic effect on MX-1 xenograft,[1]; every other day for 8 doses,tumor growth suppression but no shrinkage of the tumor
same,"Body weight recovery, % of the control","[1]; every other day for 9 doses, second to eighth day",76% to 82%
same,IC50 in vitro (FIG. 94),CCRF-CEM,sub-nanomolar
same,IC50,CCRF-CEM; [13],0.00023 µM
same,Potency compared with EpoB (51),CCRF-CEM,~3 fold and 2-4 fold
same,Antitumor effect in human solid tumor xenograft models,"[2]; mouse, in vivo",strongly suppressed tumor growth
same,Therapeutic effect on CCRF-CEM/Taxol xenograft,"[3]; 0.6 mg/kg, Q3Dx5,x2",abolished tumor growth
same,Mice died of toxicity within three days after the sixth dosage,"[4]; 0.6 mg/kg, Q2Wx6, 6 hour infusion",four out of four
C/C(=C\c1csc(C)n1)[C@@H]1C[C@H]2O[C@@]2(C)C/C=C/[C@H](C)[C@H](O)[C@@H](C)C(=O)C(C)(C)[C@@H](O)CC(=O)O1 [Compound 50],IC50,CCRF-CEM/Taxol; [12],0.0802 µM
same,IC50,CCRF-CEM; [13],0.0134 µM
same,Potency compared with EpoB (51),CCRF-CEM,much lower activity
same,Potency compared with EpoB (51),CCRF-CEM; listed as unnatural α-oxirane,virtually devoid of activity
"C/C(=C\c1csc(C)n1)[C@@H]1C/C=C(/C(F)(F)F)C/C=C/C[C@H](C)[C@H](O)[C@@H](C)C(=O)C(C)(C)[C@@H](O)CC(=O)O1 [Compound 19, 27-F3-[17]ddEpoB]",Degradation on exposure to nude mouse plasma,[5]; preliminary metabolic degradation studies,remained mostly intact
same,Degradation on exposure to human plasma,[6],remained mostly intact
same,IC50,CCRF-CEM; [14],0.068 µM
"CC(=O)O[C@H]1C(=O)[C@@]2(C)[C@H]([C@H](OC(=O)c3ccccc3)[C@]3(O)C[C@H](OC(=O)[C@H](O)[C@@H](NC(=O)c4ccccc4)c4ccccc4)C(C)=C1C3(C)C)[C@]1(OC(C)=O)CO[C@@H]1C[C@@H]2O [Paclitaxel, reference compound]",Resistance of A549/taxol cells,A549/taxol cells,44 fold
same,Resistance of CCRF-CEM/Taxol subline,CCRF-CEM/Taxol,44 fold
same,Effect of oral administration on MX-1 xenografts,[1]; oral,did not affect the tumor
same,Tumor reappeared on day 10 after administration (mice),[7],2/7
same,Tumor free after Q2Dx6 6 hr-iv. infusion (mice),[7]; 6 h,7/7
same,Mice relapsed on day 10 after suspension of treatment,[7]; 240 h,2/7
same,Final tumor suppression on D34,[3]; 20 mg/kg,75.6%
same,Therapeutic effect on CCRF-CEM/Taxol xenograft,"[3]; 20 mg/kg, 6 hr-i.v. infusion, listed as Taxol",only partial suppression of tumor growth and failed to achieve tumor shrinkage; also recorded: tumor growth suppression but with little or no tumor shrinkage
same,"Relapse, time after stopping treatment",[8]; 20 mg/kg,1.1 months
same,Cell kill,[8]; 96 h,2.56 log
same,Tumor suppression,[8]; 96 h,99.7%
same,Tumor relapse during follow-up to D200,"[4]; Fludelone 20 and 30 mg/kg, Taxol 20 mg/kg","tumor relapse occurred on D71, 75, 81 and 81; also recorded: relapses on D71, 75, 81, and 81"
same,Tumor disappearance (mice),"[4]; Q2Dx4, 6 hr-i.v. infusion for 3 cycles, F3-deH-dEpoB 20 and 30 mg/kg, Taxol 20 mg/kg",4 out of 4
C/C(=C\c1csc(C)n1)[C@@H]1C[C@H]2O[C@@]2(C)CCC[C@H](C)[C@H](O)[C@@H](C)C(=O)C(C)(C)[C@@H](O)CC(=O)O1 [Compound 52],IC50,CCRF-CEM/Taxol; [15],0.151 µM
same,IC50,CCRF-CEM; [13],0.083 µM
same,Potency compared with EpoB (51),CCRF-CEM,much lower activity
"C/C(=C\c1csc(C)n1)[C@@H]1C[C@@H]2O[C@]2(C)CCC[C@H](C)[C@H](O)[C@@H](C)C(=O)C(C)(C)[C@@H](O)CC(=O)O1 [Compound 51, Epothilone B, reference compound]",half-life,in vitro [9],15.8 h
same,half-life,in vitro [10],0.95 h
same,IC50,CCRF-CEM/Taxol; [15],0.0011 µM
same,IC50 in vitro (FIG. 94),CCRF-CEM,sub-nanomolar
same,IC50,"CCRF-CEM; read-out: Cytotoxic Efficacy IC50, CCRF-CEM leukemic cells, range of two experiments, seven concentration points",0.00053 ± 0.0002 µM
same,IC50,CCRF-CEM; [13],0.00062 µM
same,Therapeutic dose regimen for Q2D 6 hr-iv infusion,[2]; Q2D 6 hr-iv infusion,0.6 to 0.8 mg/kg
same,Relative therapuetic index at MTD,[2]; graded at maximal tolerated dose,+++
same,Maximal b.w. % drop without death,[2]; nude mice,15%
"CC1=C/C[C@@H](/C(C)=C/c2csc(C)n2)OC(=O)C[C@H](O)C(C)(C)C(=O)[C@H](C)[C@@H](O)[C@@H](C)C\C=C\1 [Compound 6, epothilone 490, reference compound]",IC50,CCRF-CEM; read-out: CCRF-CEM (IC50 (μM)),0.02 µM
"C/C(=C\c1csc(C)n1)[C@@H]1C/C=C(/C(F)(F)F)CCC[C@H](C)[C@H](O)[C@@H](C)C(=O)C(C)(C)[C@@H](O)CC(=O)O1 [Compound 2, 26-trifluoro-12,13-desoxyepothilone B]",solubility,Solubility in water; water,8 µg/mL
same,"Slower drug degradation in murine plasma as compared to dEpoB (1), factor",[5],by a factor of seven
same,chromatographic logP,[11],4.1
same,half-life,in vitro [9],1.6 ± 0.4 h
same,half-life,in vitro [10],1.1 ± 0.117 h
same,IC50,"CCRF-CEM/Taxol; XTT assay following 72 h inhibition, Table 1-3, read-out: IC50, C/Taxol",0.018 µM
same,IC50,CCRF-CEM; human,0.0093 ± 0.0052 µM
same,IC50,"CCRF-CEM; read-out: IC50, CCRF-CEM(C), XTT assay following 72 h inhibition, Table 1-3",0.0041 µM
same,Maximal b.w. % drop without death,"[2]; mouse, in vivo",22%
same,Therapeutic dose regimen for Q2D 6 hr-iv infusion,"[2]; mouse, in vivo, iv",15 to 20 mg/kg
"C/C1=C/C[C@@H](/C(C)=C/c2csc(CO)n2)OC(=O)C[C@H](O)C(C)(C)C(=O)[C@H](C)[C@@H](O)[C@@H](C)/C=C/C1 [Compound 57, 9,10-dehydro-dEpoF]",Water solubility relative to other epothilones,Solubility in water,greatly increased water solubility
same,"Slower drug degradation in murine plasma as compared to dEpoB (1), factor",[5],ca. 7
same,IC50,"CCRF-CEM/Taxol; XTT assay following 72 h inhibition, Table 1-2, read-out: IC50 (μM), CCRF-CEM/Taxol",0.00073 µM
same,IC50 in vitro (FIG. 94),CCRF-CEM,sub-nanomolar
same,IC50,"CCRF-CEM; read-out: IC50 (μM), CCRF-CEM, XTT assay following 72 h inhibition, Table 1-2",0.00051 µM
same,Antitumor effect in human solid tumor xenograft models,"[2]; mouse, in vivo",strongly suppressed tumor growth
"[17]ddEpoB [Compound 23, reference compound]",IC50,CCRF-CEM; [14],0.04 µM
